The record followed here is patent US12415830B2, “Steroid compound, and use thereof and preparation method therefor” (Chengdu Kanghong Pharmaceutical Co Ltd, priority 2019, dated 2025).

The assay concerns the target T1, GABAA1 (α1β2γ2) receptor (Homo sapiens, UniProt P14867+P47870).
T1 construct: expressed in transfected cells
Put plainly: Patch-clamp electrophysiology on recombinant GABAA1 receptor in HEK293 cells, with 3 μM GABA. In kind it is cell-based. To be noted: for Emax at 0.1 µM / Emax at 1 µM / Emax: HEK293; for Emax at 0.1 µM: 0.1 μM compound together with 3 μmol GABA; for Emax at 0.1 µM / Emax at 1 µM: read-out: potency: ratio of the peak current on the GABAA1 receptor to the peak current in 100 μmol GABA; for Emax at 1 µM: 1 μM compound together with 3 μmol GABA; for Emax / pEC50: together with 3 μmol GABA; for Emax: relative to peak current in 100 μmol GABA. The procedure: The present invention applies the two subunits of the recombinant GABAA receptor: α1β2γ2 and α4β3δ to evaluate the potency of the exemplary compounds in vitro by patch-clamp electrophysiology.
Extracellular fluid: 140 mM NaCl, 5 mM CsCl, 2 mM CaCl2·2H2O, 1 mM MgCl2·6H2O, 5 mM HEPES, 10 mM D-Glucose, pH=7.4 (NaOH).
Intracellular fluid: 130 mM CsCl, 0.1 mM CaCl2·H2O, 2 mM MgCl2·6H2O, 1.1 mM EGTA, 5 mM Na2-ATP, 10 mM HEPES, pH=7.2 (CsOH).
The HEK293 cells line stably expressing GABAA (α1β2γ2) receptors was cultured in Dulbecco's Modified Eagle Medium (DMEM) supplemented with 10% fetal bovine serum, 800 μg/mL G418, 200 μg/mL Hygromycin B and 100 μg/mL Zeocin. Cells were grown in a humidified incubator at 37° C. with 5% carbon dioxide.
Before manual patch clamp test, the cells were detached using 0.25%-Trypsin-EDTA solution. Then 8×10^3 cells were plated onto coverslips, and cultured in a 24-well plate (final medium volume: 500 μL) and tested after 18 hours by patch clamp.
Glass pipette (BF 150-86-10, Sutter Instruments) was pulled using a micropipette puller (P97, Sutter Instruments). The glass pipette was manipulated using a micro-manipulator (MP285, Sutter Instruments) under the microscope (IX71, Olympus). After touching the cell, a slight suction was applied to achieve high seal resistance (GQ). Fast capacitance (in pF) compensation was made after achieving high seal, and the membrane was broken. Cell capacitance (in pF) compensation was made from whole-cell capacitance compensation after the whole cell mode was achieved. No leak subtraction was made.
The test and control solutions flowed into a recording chamber mounted on the stage of an inverted microscope via a gravity-fed solution delivery system. During the experiment, solutions were withdrawn from the recording chamber by vacuum aspiration. Each concentration was tested at multiple times. All tests were performed at room temperature.
Whole cell model recorded GABAA1 receptors current experimental protocol was indicated as follows: When sealing, cell was at a holding potential of −70 mV, with gap-free mode to record the peak current. The cell would be applied with 3 μM GABA to active current. After the test articles application for 30 s, each concentration of test articles was applied with 3 μM GABA followed by 2 minutes washout using extracellular solution. Finally, 100 μM GABA was used as a positive control. The data were collected by EPC-10 amplifier and stored in PatchMaster (HEKA) software.
The following criteria are used to determine whether the data is acceptable: • (1) Electrode resistance <5MΩ • (2) Seal resistance >1GΩ • (3) The start of access resistance <15 MΩ • (4) The end of access resistance <15 MΩ • (5) No obvious spontaneous current decay. • (6) No obvious current leakage when the membrane potential is-70 mv. 56.6 Data Analysis
In the detection of GABAA1, the currents of 3 μM GABA and different concentrations of test compounds were respectively normalized to the current of 100 μM GABA
[formula] and then the activation rate corresponding to each concentration was calculated.
[formula] and then the activation rate corresponding to each concentration was calculated. Means, Standard Deviation and Standard Error were calculated for each test group. EC50 value was calculated using nonlinear regression: Y=Bottom+(Top−Bottom)/(1+10^((Log EC50−X)×HillSlope))
To fit data to the concentration-response, EC50 was the concentration giving a half-maximum effect and Hillslope was the Hill coefficient. Curve-fitting and EC50 calculations were performed using Graphpad5.0 software.
Emax is defined as the ratio of the peak current generated on the GABAA1 receptor to the peak current generated only in 100 μmol of GABA and the ratio is multiplied by 100%. The peak current generated on the GABAA1 receptor is that the exemplary compounds act on the GABAA1 receptor together with 3 μmol GABA.

In general, pEC50 refers to the EC50 on a negative log10 scale, so that one unit is a factor of ten.

pEC50: −log10 of the molar value.

T1 sequence (P14867 28-456): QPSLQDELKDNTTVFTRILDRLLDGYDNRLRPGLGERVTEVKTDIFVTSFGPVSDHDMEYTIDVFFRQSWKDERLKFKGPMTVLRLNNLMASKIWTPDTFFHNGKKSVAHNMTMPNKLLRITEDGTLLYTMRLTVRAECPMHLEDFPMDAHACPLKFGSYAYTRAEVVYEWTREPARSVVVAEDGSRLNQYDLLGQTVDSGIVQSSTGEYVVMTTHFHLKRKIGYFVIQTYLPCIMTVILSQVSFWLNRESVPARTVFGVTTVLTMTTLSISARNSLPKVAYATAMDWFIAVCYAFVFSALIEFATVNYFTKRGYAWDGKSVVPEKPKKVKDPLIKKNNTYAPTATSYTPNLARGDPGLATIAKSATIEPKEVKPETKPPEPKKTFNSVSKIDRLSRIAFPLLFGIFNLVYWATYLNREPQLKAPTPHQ
T1 sequence (P47870 26-512): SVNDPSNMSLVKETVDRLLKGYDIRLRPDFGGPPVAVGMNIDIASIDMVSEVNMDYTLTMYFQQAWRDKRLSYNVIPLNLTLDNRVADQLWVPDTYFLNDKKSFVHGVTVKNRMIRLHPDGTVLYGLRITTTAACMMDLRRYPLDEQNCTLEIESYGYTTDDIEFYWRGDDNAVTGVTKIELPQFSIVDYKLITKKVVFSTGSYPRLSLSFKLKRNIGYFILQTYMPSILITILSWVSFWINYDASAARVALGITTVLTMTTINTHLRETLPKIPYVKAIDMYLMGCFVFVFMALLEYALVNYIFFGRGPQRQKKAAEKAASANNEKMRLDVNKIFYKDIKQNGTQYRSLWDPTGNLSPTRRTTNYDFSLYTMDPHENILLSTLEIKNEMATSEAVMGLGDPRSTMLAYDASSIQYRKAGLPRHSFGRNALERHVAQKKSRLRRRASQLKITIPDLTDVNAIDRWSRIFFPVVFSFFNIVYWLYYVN
T1 sequence (P18507 40-475 partner): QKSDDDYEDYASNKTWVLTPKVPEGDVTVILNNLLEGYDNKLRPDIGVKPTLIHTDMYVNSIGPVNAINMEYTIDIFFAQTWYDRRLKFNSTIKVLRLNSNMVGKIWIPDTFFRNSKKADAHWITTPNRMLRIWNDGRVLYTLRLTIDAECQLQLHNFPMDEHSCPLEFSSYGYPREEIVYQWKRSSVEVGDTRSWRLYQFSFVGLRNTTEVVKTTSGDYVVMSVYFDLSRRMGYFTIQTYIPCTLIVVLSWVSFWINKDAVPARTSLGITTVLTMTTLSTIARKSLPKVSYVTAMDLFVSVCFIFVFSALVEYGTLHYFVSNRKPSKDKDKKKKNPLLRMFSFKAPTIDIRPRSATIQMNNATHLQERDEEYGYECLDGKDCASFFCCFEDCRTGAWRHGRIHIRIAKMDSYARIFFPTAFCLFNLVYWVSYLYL

As for `C[C@]12CC[C@@H](O)C[C@@H]1CC[C@@H]1[C@@H]2CC[C@]2(C)[C@@H](C(=O)Cn3cc(C#N)cn3)CCC[C@@H]12` [KH002], the Emax at 0.1 µM is 0 to 20%, the Emax at 1 µM is 60 to 80%, the Emax was 74.6% and the pEC50 was 6.33.
The like results for `C[C@]12CC[C@@H](O)C[C@@H]1CC[C@@H]1[C@@H]2CC[C@]2(C)[C@@H](C(=O)Cn3ccnn3)CCC[C@@H]12` [KH003] were, in that order, 20 to 40%, 60 to 80%, 72.8% and 6.32.
On to `C[C@]12CC[C@@H](O)C[C@@H]1CC[C@@H]1[C@@H]2CC[C@]2(C)[C@@H](C(=O)Cn3cnnn3)CCC[C@@H]12` [KH005], for which the Emax at 0.1 µM lay in the range of 20 to 40% and the Emax at 1 µM lay within 60 to 80%.
For `C[C@]12CC[C@@H](O)C[C@@H]1CC[C@@H]1[C@@H]2CC[C@]2(C)[C@@H](C(=O)Cn3cccn3)CCC[C@@H]12` [KH006], the Emax at 0.1 µM was in the range of 20 to 40% and the Emax at 1 µM was 40 to 60%.
With `C[C@]12CC[C@@H](O)C[C@@H]1CC[C@@H]1[C@@H]2CC[C@]2(C)[C@@H](C(=O)Cn3ccnc3)CCC[C@@H]12` [KH007], the Emax at 0.1 µM was in the range of 0 to 20% and the Emax at 1 µM lay in the range of 40 to 60%.
For `C[C@]12CC[C@@H](O)C[C@@H]1CC[C@@H]1[C@@H]2CC[C@]2(C)[C@@H](C(=O)Cn3ccc(C#N)n3)CCC[C@@H]12` [KH008], the Emax at 0.1 µM was in the range of 20 to 40% and the Emax at 1 µM was more than 80%.
Turning to `C[C@]12CC[C@@H](O)C[C@@H]1CC[C@@H]1[C@@H]2CC[C@]2(C)[C@@H](C(=O)Cn3ccc4ccccc43)CCC[C@@H]12` [KH009], the Emax at 0.1 µM lay within 20 to 40% and the Emax at 1 µM was more than 80%.
As to `C[C@]12CC[C@@H](O)C[C@@H]1CC[C@@H]1[C@@H]2CC[C@]2(C)[C@@H](C(=O)Cn3cc(C(F)(F)F)cn3)CCC[C@@H]12` [KH010], the Emax at 0.1 µM lay in the range of 0 to 20% and the Emax at 1 µM lay in the range of 20 to 40%.
Consider `C[C@]12CC[C@@H](O)C[C@@H]1CC[C@@H]1[C@@H]2CC[C@]2(C)[C@@H](C(=O)Cn3ncc4ccccc43)CCC[C@@H]12` [KH011], for which the Emax at 0.1 µM fell in the range of 20 to 40% and the Emax at 1 µM fell in the range of 60 to 80%.
As to `C[C@]12CC[C@@H](O)C[C@@H]1CC[C@@H]1[C@@H]2CC[C@]2(C)[C@@H](C(=O)Cn3cnc4cncnc43)CCC[C@@H]12` [KH012], the Emax at 0.1 µM is 0 to 20% and the Emax at 1 µM fell in the range of 60 to 80%.
With `C[C@]12CC[C@@H](O)C[C@@H]1CC[C@@H]1[C@@H]2CC[C@]2(C)[C@@H](C(=O)Cn3cc(Cl)cn3)CCC[C@@H]12` [KH013], the Emax at 0.1 µM was in the range of 0 to 20% and the Emax at 1 µM fell in the range of 0 to 20%.
Turning to `C[C@]12CC[C@@H](O)C[C@@H]1CC[C@@H]1[C@@H]2CC[C@]2(C)[C@@H](C(=O)CO)CCC[C@@H]12` [KH014], the Emax at 0.1 µM lay within 0 to 20% and the Emax at 1 µM is 40 to 60%.
In the same order, the values of `C[C@]12CC[C@@H](O)C[C@@H]1CC[C@@H]1[C@@H]2CC[C@]2(C)[C@@H](C(=O)Cn3cnc4ncnc(Cl)c43)CCC[C@@H]12` [KH015] are 0 to 20% and 0 to 20%.
As for `C[C@]12CC[C@@H](O)C[C@@H]1CC[C@@H]1[C@@H]2CC[C@]2(C)[C@@H](C(=O)CSc3cccs3)CCC[C@@H]12` [KH016], the Emax at 0.1 µM is 0 to 20% and the Emax at 1 µM fell in the range of 40 to 60%.
Consider `COc1ncnc2ncn(CC(=O)[C@H]3CCC[C@H]4[C@@H]5CC[C@H]6C[C@H](O)CC[C@]6(C)[C@H]5CC[C@]34C)c12` [KH017], for which the Emax at 0.1 µM lay within 0 to 20% and the Emax at 1 µM was 0 to 20%.
As to `Cc1nnn(CC(=O)[C@H]2CCC[C@H]3[C@@H]4CC[C@H]5C[C@H](O)CC[C@]5(C)[C@H]4CC[C@]23C)n1` [KH018], the Emax at 0.1 µM lay within 0 to 20% and the Emax at 1 µM lay within 20 to 40%.
For the molecule `Cc1nnnn1CC(=O)[C@H]1CCC[C@H]2[C@@H]3CC[C@H]4C[C@H](O)CC[C@]4(C)[C@H]3CC[C@]12C` [KH019], the Emax at 0.1 µM was in the range of 0 to 20% and the Emax at 1 µM lay in the range of 0 to 20%.
With `C[C@]12CC[C@@H](O)C[C@@H]1CC[C@@H]1[C@@H]2CC[C@]2(C)[C@@H](C(=O)CN3CC4(COC4)C3)CCC[C@@H]12` [KH020], the Emax at 0.1 µM lay within 0 to 20% and the Emax at 1 µM lay within 0 to 20%.
Consider `CC(=O)[C@H]1CCC[C@H]2[C@@H]3CC[C@H]4C[C@](C)(O)CC[C@]4(C)[C@H]3CC[C@]12C` [KH021], for which the Emax at 0.1 µM is 0 to 20% and the Emax at 1 µM was in the range of 0 to 20%.
Take `C[C@@]1(O)CC[C@@]2(C)[C@@H](CC[C@@H]3[C@@H]2CC[C@]2(C)[C@@H](C(=O)Cn4cnnn4)CCC[C@@H]32)C1` [KH023]: the Emax at 0.1 µM lay within 0 to 20% and the Emax at 1 µM is 0 to 20%.
For `C[C@@]1(O)CC[C@@]2(C)[C@@H](CC[C@@H]3[C@@H]2CC[C@]2(C)[C@@H](C(=O)Cn4ccc(C#N)n4)CCC[C@@H]32)C1` [KH024], the Emax at 0.1 µM lay in the range of 0 to 20% and the Emax at 1 µM lay in the range of 40 to 60%.
The like results for `C[C@@]1(O)CC[C@@]2(C)[C@@H](CC[C@@H]3[C@@H]2CC[C@]2(C)[C@@H](C(=O)C(n4cc(C#N)cn4)n4cc(C#N)cn4)CCC[C@@H]32)C1` [KH027] were, in that order, 0 to 20% and 0 to 20%.
Take `C[C@@]1(O)CC[C@@]2(C)[C@@H](CC[C@@H]3[C@@H]2CC[C@]2(C)[C@@H](C(=O)COc4nc5ccccc5o4)CCC[C@@H]32)C1` [KH028]: the Emax at 0.1 µM is 0 to 20% and the Emax at 1 µM was in the range of 0 to 20%.
On to `Cc1cccc2c(OCC(=O)[C@H]3CCC[C@H]4[C@@H]5CC[C@H]6C[C@](C)(O)CC[C@]6(C)[C@H]5CC[C@]34C)ncnc12` [KH029], for which the Emax at 0.1 µM is 0 to 20% and the Emax at 1 µM lay within 0 to 20%.
Regarding `COc1nnc(OCC(=O)[C@H]2CCC[C@H]3[C@@H]4CC[C@H]5C[C@](C)(O)CC[C@]5(C)[C@H]4CC[C@]23C)n1C` [KH030], the Emax at 0.1 µM is 0 to 20% and the Emax at 1 µM lay within 0 to 20%.
Take `Cn1nnnc1SCC(=O)[C@H]1CCC[C@H]2[C@@H]3CC[C@H]4C[C@](C)(O)CC[C@]4(C)[C@H]3CC[C@]12C` [KH031]: the Emax at 0.1 µM is 0 to 20% and the Emax at 1 µM was 40 to 60%.
Regarding `C[C@@]1(O)CC[C@@]2(C)[C@@H](CC[C@@H]3[C@@H]2CC[C@]2(C)[C@@H](C(=O)COc4ccc5ccccc5n4)CCC[C@@H]32)C1` [KH033], the Emax at 0.1 µM is 0 to 20% and the Emax at 1 µM fell in the range of 20 to 40%.
Turning to `C[C@@]1(O)CC[C@@]2(C)[C@@H](CC[C@@H]3[C@@H]2CC[C@]2(C)[C@@H](C(=O)COc4nc[nH]n4)CCC[C@@H]32)C1` [KH034], the Emax at 0.1 µM fell in the range of 0 to 20% and the Emax at 1 µM is 0 to 20%.
Regarding `C[C@@]1(O)CC[C@@]2(C)[C@@H](CC[C@@H]3[C@@H]2CC[C@]2(C)[C@@H](C(=O)COc4ncnc5c(F)cccc45)CCC[C@@H]32)C1` [KH035], the Emax at 0.1 µM lay in the range of 0 to 20% and the Emax at 1 µM lay within 20 to 40%.
For the molecule `C[C@@]1(O)CC[C@@]2(C)[C@@H](CC[C@@H]3[C@@H]2CC[C@]2(C)[C@@H](C(=O)COc4ncnc5cnc(F)cc45)CCC[C@@H]32)C1` [KH036], the Emax at 0.1 µM was 0 to 20% and the Emax at 1 µM lay within 0 to 20%.
On to `Cn1cnnc1SCC(=O)[C@H]1CCC[C@H]2[C@@H]3CC[C@H]4C[C@](C)(O)CC[C@]4(C)[C@H]3CC[C@]12C` [KH037], for which the Emax at 0.1 µM lay within 0 to 20% and the Emax at 1 µM fell in the range of 0 to 20%.
